The source of these data is patent US8273762B2, “Hexahydro-pyrrolo-isoquinoline compounds” (Janssen Pharmaceutica NV, priority 2005, dated 2012).

Like-named read-outs stand apart in the source and are kept apart here.

The target in experiment [1] is T1, cloned human H3 receptor, stably expressed in SK-N-MC cells (Homo sapiens, UniProt Q9Y5N1).
T1 construct: expressed in transfected cells
Kind of experiment: H3 receptor binding (N-[3H]-α-methylhistamine displacement). The following applies: SK-N-MC membranes, 0.8 nM N-[3H]-α-methylhistamine.

A further experiment addresses T2, Rat SERT (Rattus norvegicus, UniProt P31652).
T2 construct: A rat brain without cerebellum (Zivic Laboratories, Inc.—Pittsburgh, Pa.) was homogenized; tissue Zivic Laboratories, Inc; host or cells: rat brain without cerebellum, membranes
Kind of experiment: Rat brain SERT binding ([3H]-Citalopram displacement).

In experiment [2] the target is T3, human SERT (HEK293 membranes) (Homo sapiens, UniProt P31645).
T3 construct: purchased Perkin-Elmer; host or cells: HEK293 membranes
T3 sequence (P31645 whole entry): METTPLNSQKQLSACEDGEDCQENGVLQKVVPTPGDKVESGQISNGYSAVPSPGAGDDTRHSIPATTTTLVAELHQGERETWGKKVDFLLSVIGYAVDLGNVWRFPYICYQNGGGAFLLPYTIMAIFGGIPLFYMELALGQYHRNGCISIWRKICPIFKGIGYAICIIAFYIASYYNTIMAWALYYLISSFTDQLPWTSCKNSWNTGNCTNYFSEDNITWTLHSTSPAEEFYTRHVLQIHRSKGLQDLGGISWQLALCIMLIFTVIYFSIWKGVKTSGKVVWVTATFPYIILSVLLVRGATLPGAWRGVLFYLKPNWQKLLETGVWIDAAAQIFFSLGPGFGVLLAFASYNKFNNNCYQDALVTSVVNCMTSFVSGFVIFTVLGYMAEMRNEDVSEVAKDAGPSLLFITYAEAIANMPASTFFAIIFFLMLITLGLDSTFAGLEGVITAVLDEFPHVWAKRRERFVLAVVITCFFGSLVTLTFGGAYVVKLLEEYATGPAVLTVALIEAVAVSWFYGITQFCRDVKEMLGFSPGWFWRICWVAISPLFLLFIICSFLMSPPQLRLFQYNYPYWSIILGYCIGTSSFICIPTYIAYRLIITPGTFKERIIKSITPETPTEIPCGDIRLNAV
Kind of experiment: Human SERT binding (3H-citalopram displacement).
Protocol: Nonspecific binding was determined in the presence of 10 μM fluoxetine for the SERT. The membranes were washed and the radioactivity was counted as above.

Experiment [3] addresses T4, human H3 receptor (SK-N-MC cells) (Homo sapiens, UniProt Q9Y5N1).
T4 construct: expressed in transfected cells; host or cells: SK-N-MC sublines with CRE-beta-galactosidase reporter
Briefly: Cyclic AMP accumulation (β-galactosidase reporter, Schild analysis vs histamine). Type of experiment: cell-based.
Protocol: The reporter gene (β-galactosidase) is under the control of multiple cyclic AMP responsive elements. In 96-well plates, histamine was added directly to the cell media followed 5 min later by an addition of forskolin (5 μM final concentration). When appropriate, antagonists were added 10 min prior to agonist addition. After a 6-h incubation at 37° C., the media was aspirated and the cells washed with 200 μL of phosphate-buffered saline followed by a second aspiration. Cells were lysed with 25 μL 0.1× assay buffer (10 mM Na-phosphate, pH 8, 0.2 mM MgSO4, 0.01 mM MnCl2) and incubated at rt for 10 min. Cells were then incubated for 10 min with 100 μL of 1× assay buffer containing 0.5% Triton and 40 mM β-mercaptoethanol. Color was developed using 25 μL of 1 mg/mL substrate solution (chlorophenolred β-D galactopyranoside; Roche Molecular Biochemicals, Indianapolis, Ind.).

In experiment [4] the test system is synaptic reuptake of 5-HT. Kind of experiment: 5-HTP potentiation test (head twitches). Type of experiment: in vivo. Particulars: mice, 5 min interval, carbidopa 10 mg/kg + 5-HTP 40 mg/kg, average ± s.e.m.
Experiment [5] relates to serotonin and dopamine levels in the cortex. Kind of experiment: Microdialysis of serotonin and dopamine in cortex. The following applies: cortex of freely moving rats, 1 mg/kg subcutaneous, FIG. 1. In kind it is in vivo. The source says:
Microdialysis is used to measure the concentration of small biological molecules in the extracellular fluid of the brain (Parent, M. et al. Methods 2001, 23, 11-20). A small probe, containing a fine microdialysis membrane at its tip, is introduced into the brain of an animal. A buffered solution is infused through the catheter. Small molecules, such as monoamine neurotransmitters, diffuse through the pores in the microdialysis membrane and are captured in the solution. The samples are then analyzed by analytical techniques to quantitate the amount of neurotransmitter in the brain extracellular fluid. This technique has been used extensively to measure the effects of SERT inhibitors on levels of extracellular serotonin.
Microdialysis was used to measure the levels of serotonin and dopamine in the brain of freely moving rats after subcutaneous injection of Example 8A. […] Results are represented as the average ±s.d. of n=2-4 rats.

Another experiment concerns H3 receptor. The following applies: 60 min, average ± s.e.m.
The mark [6] stands for this setting: rat brain membranes, 0.6 nM [3H]-Citalopram, read-out: Rat SERT Ki.

T2 sequence (P31652 whole entry): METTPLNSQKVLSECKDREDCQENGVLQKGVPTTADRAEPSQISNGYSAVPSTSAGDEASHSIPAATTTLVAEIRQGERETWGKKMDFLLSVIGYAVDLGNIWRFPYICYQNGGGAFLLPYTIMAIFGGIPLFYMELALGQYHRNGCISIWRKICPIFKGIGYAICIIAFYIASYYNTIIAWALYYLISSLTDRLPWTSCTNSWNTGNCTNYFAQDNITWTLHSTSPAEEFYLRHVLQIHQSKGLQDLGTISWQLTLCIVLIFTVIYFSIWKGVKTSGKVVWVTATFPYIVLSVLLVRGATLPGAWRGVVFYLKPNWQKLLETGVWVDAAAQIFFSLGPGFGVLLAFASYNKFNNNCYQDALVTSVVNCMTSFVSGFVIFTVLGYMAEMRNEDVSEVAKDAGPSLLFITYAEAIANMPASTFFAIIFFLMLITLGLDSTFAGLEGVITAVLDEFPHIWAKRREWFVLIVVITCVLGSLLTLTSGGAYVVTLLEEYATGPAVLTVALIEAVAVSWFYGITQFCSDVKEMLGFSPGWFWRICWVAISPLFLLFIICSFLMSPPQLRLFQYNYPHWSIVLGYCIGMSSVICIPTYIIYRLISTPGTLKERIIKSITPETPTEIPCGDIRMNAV
T1 sequence (Q9Y5N1 whole entry): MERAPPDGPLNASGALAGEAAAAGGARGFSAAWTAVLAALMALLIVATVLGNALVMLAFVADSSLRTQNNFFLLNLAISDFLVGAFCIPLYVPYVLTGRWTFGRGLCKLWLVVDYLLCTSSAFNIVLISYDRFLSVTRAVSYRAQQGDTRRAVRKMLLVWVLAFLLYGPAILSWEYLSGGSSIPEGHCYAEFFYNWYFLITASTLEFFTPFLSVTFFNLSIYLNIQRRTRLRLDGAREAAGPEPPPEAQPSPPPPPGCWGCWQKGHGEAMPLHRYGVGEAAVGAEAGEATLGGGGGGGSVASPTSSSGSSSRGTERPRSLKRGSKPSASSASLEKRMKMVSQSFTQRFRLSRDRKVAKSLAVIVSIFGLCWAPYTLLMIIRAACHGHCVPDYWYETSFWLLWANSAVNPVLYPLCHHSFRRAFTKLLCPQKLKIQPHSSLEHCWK
T4 sequence (Q9Y5N1 whole entry): as above

Broadly, the Ki is a dissociation constant, usually derived from enzyme kinetics or from competition with a known ligand. As to `c1ccc([C@H]2CN3CCC[C@H]3c3cc(OCCCN4CCCCC4)ccc32)cc1` (relative stereo) [Example 1A, Cis-6-Phenyl-9-(3-piperidin-1-yl-propoxy)-1,2,3,5,6,10b-hexahydro-pyrrolo[2,1a]isoquinoline], the Ki in experiment [1] is 0.9 nM; on Rat SERT (setting [6]) it was 2 nM; in experiment [2], 4 nM. Further, the Kb in experiment [3] (read-out: H3 pA2 (converted)) was 0.2 nM.

On to `COc1ccc([C@H]2CN3CCC[C@H]3c3cc(OCCCN4CCCCC4)ccc32)cc1` (relative stereo) [Example 8A, Cis-6-(4-Methoxy-phenyl)-9-(3-piperidin-1-yl-propoxy)-1,2,3,5,6,10b-hexahydro-pyrrolo[2,1-a]isoquinoline], for which the head twitch frequency in experiment [4] (3 mg/kg, Group 1 (1 h)) was 6.0 ± 1.2 (3); in experiment [4] (3 mg/kg, Group 2 (24 h)), 24.0 ± 2.1 (4); in experiment [4] (10 mg/kg, Group 1 (1 h)), 2.0 ± 0.6 (3); in experiment [4] (10 mg/kg, Group 2 (24 h)), 41.3 ± 5.2 (3). The “dopamine (DA) levels by microdialysis” value in experiment [5] is “slow, persistent increase”. Moreover, the “serotonin (5-HT) levels by microdialysis” value in experiment [5] is recorded as “slow, persistent increase”. For the same molecule, the “Water Consumed” value in the experiment on H3 receptor (Example 8A (1 mg/kg) i.p. + Imetit (1 mg/kg) after 24 h) is given as 1.99 ± 0.68 mL; in the experiment with H3 receptor (Example 8A (3 mg/kg) i.p. + Imetit (1 mg/kg) after 24 h), 1.65 ± 0.51 mL; with H3 receptor (Example 8A (10 mg/kg) i.p. + Imetit (1 mg/kg) after 24 h, p = 0.022 compared to imetit-treated animals), “*0.25 ± 0.15 mL”.

For the molecule `Oc1ccc([C@H]2CN3CCC[C@H]3c3cc(OCCCN4CCCCC4)ccc32)cc1` (relative stereo) [Example 9A], the Ki worked out at 2 nM in experiment [1], 9 nM on Rat SERT (setting [6]) and 58 nM in experiment [2]. In experiment [3] (read-out: H3 pA2 (converted)), the Kb is 0.316 nM.

With `COc1cccc([C@H]2CN3CCC[C@H]3c3cc(OCCCN4CCCCC4)ccc32)c1` (relative stereo) [Example 10A, Cis-6-(3-Methoxy-phenyl)-9-(3-piperidin-1-yl-propoxy)-1,2,3,5,6,10b-hexahydro-pyrrolo[2,1-a]isoquinoline], the Ki in experiment [1] stood at 2 nM; at Rat SERT (setting [6]), 5 nM; in experiment [2] it was 2 nM. In addition, the Kb in experiment [3] (read-out: H3 pA2 (converted)) is 0.158 nM.

Turning to `Clc1cccc([C@@H]2CN3CCC[C@H]3c3cc(OCCCN4CCCCC4)ccc32)c1` (relative stereo) [Example 11A, Cis-6-(3-Chloro-phenyl)-9-(3-piperidin-1-yl-propoxy)-1,2,3,5,6,10b-hexahydro-pyrrolo[2,1-a]isoquinoline], the Ki in experiment [1] came to 1 nM; on Rat SERT (setting [6]), 4 nM; in experiment [2], 0.6 nM. Moreover, the Kb in experiment [3] (read-out: H3 pA2 (converted)) is 0.316 nM.

For `FC(F)(F)Oc1ccc([C@H]2CN3CCC[C@H]3c3cc(OCCCN4CCCCC4)ccc32)cc1` (relative stereo) [Example 17], the Ki in experiment [1] was found to be 4 nM; at Rat SERT (setting [6]), 11 nM; in experiment [2] it was 7 nM. In addition, the Kb in experiment [3] (read-out: H3 pA2 (converted)) is 6.31 nM.

As for `COc1ccc([C@H]2CN3CCC[C@H]3c3cc(OC4CCN(C(C)C)CC4)ccc32)cc1` (relative stereo) [Example 28], the Ki was found to be 0.4 nM in experiment [1], 4 nM on Rat SERT (setting [6]) and 5 nM in experiment [2].

`CN(C)c1ccc([C@H]2CN3CCC[C@H]3c3cc(OCCCN4CCCCC4)ccc32)cc1` (relative stereo) [Example 30]: the values for the Ki (in experiment [1]; at Rat SERT (setting [6]); in experiment [2]) were 2 nM, 3 nM and 2 nM, respectively.

Regarding `C[Si](C)(C)C#Cc1ccc([C@H]2CN3CCC[C@H]3c3cc(OCCCN4CCCCC4)ccc32)cc1` (relative stereo) [Example 36], the Ki in experiment [1] was 4 nM; at Rat SERT, 15 nM. This molecule also had a Kb in experiment [3] of 10 nM.

For `N#Cc1ccc([C@@H]2CN3CCC[C@H]3c3cc(OCCCN4CCCCC4)ccc32)cc1` (relative stereo) [Example 41A, Cis-4-[9-(3-Piperidin-1-yl-propoxy)-1,2,3,5,6,10b-hexahydro-pyrrolo[2,1-a]isoquinolin-6-yl]-benzonitrile], the Ki was found to be 1 nM in experiment [1], 25 nM at Rat SERT (setting [6]) and 59 nM in experiment [2]. Also, in experiment [3] (read-out: H3 pA2 (converted)), the Kb was 0.794 nM.

In the case of `N#Cc1ccc([C@H]2CN3CCC[C@H]3c3cc(OCCCN4CCCCC4)ccc32)cc1` (relative stereo) [Example 41B, Trans-4-[9-(3-Piperidin-1-yl-propoxy)-1,2,3,5,6,10b-hexahydro-pyrrolo[2,1-a]isoquinolin-6-yl]-benzonitrile], the inhibitory constant (Ki) in experiment [1] was determined as 1 nM; at Rat SERT (setting [6]), 6 nM. Also, the Kb in experiment [3] (read-out: H3 pA2 (converted)) was 0.794 nM.

As to `FC(F)(F)c1cccc([C@H]2CN3CCC[C@H]3c3cc(OCCCN4CCCCC4)ccc32)c1` (relative stereo) [Example 67], the results for the Ki (in experiment [1]; on Rat SERT (setting [6]); in experiment [2]) were 2 nM, 22 nM and 9 nM, respectively. For the same molecule, in experiment [3] (read-out: H3 pA2 (converted)), the Kb is 0.501 nM.

Turning to `COc1ccc([C@H]2CN3CCC[C@H]3c3cc(OCCCN4CCOC[C@@H]4C)ccc32)cc1` [Example 46, Cis-6-(4-Methoxy-phenyl)-9-[3-(3S-methyl-morpholin-4-yl)-propoxy]-1,2,3,5,6,10b-hexahydro-pyrrolo[2,1-a]isoquinoline], the figures for the Ki (in experiment [1]; on Rat SERT (setting [6]); in experiment [2]) were 4 nM, 14 nM and 9 nM, respectively.

On to `COc1ccc([C@@H]2CN3CCC[C@@H]3c3cc(OCCCN4CCOCC4)ccc32)cc1` [Example 92, (1R,6S)-6-(4-Methoxy-phenyl)-9-(3-morpholin-4-yl-propoxy)-1,2,3,5,6,10b-hexahydro-pyrrolo[2,1-a]isoquinoline], for which the values for the Ki (in experiment [1]; at Rat SERT (setting [6]); in experiment [2]) were 16 nM, 2.2 nM and 4 nM, respectively. Besides, the Kb in experiment [3] (read-out: H3 pA2 (converted)) is 15.8 nM.

With `COc1ccc([C@H]2CN3CCC[C@@H]3c3cc(OCCCN4CCOCC4)ccc32)cc1` [Example 94, (1R,6R)-6-(4-Methoxy-phenyl)-9-(3-morpholin-4-yl-propoxy)-1,2,3,5,6,10b-hexahydro-pyrrolo[2,1-a]isoquinoline], the Ki came out at 4 nM in experiment [1], 53 nM on Rat SERT (setting [6]) and 111 nM in experiment [2].

In the case of `COc1ccc([C@@H]2CN3CCC[C@H]3c3cc(OCCCN4CCOCC4)ccc32)cc1` [Example 95, (1S,6S)-6-(4-Methoxy-phenyl)-9-(3-morpholin-4-yl-propoxy)-1,2,3,5,6,10b-hexahydro-pyrrolo[2,1-a]isoquinoline], the results for the Ki (in experiment [1]; on Rat SERT (setting [6]); in experiment [2]) were 6 nM, 11 nM and 13 nM, respectively.
